Test results taken from ChEMBL document CHEMBL1201862, “PubChem BioAssay data set” (2004).
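All cell lines were grown in 96-well plates and treated with compound for 48 hours. GI50: concentration for 50% inhibition of growth.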 Calls of active or inactive are those of the source. Cut-off read from the data, not from the text of the source: active = GI50 up to about 1.1 µM and inactive = higher.

Tests used:
Experiment in all cases: NCI anticancer screen, dose series, 48 h
SNB-75 = test system: SNB-75
MDA-MB-435 = test system: MDA-MB-435
UO-31 = test system: UO-31
A498 = test system: A498
HOP-92 = test system: HOP-92
OVCAR-4 = test system: OVCAR-4
SN12C = test system: SN12C
LOX IMVI = test system: LOX IMVI
NCI-H23 = test system: NCI-H23
SK-MEL-2 = test system: SK-MEL-2
ACHN = test system: ACHN
UACC-62 = test system: UACC-62
TK-10 = test system: TK-10
T47D = test system: T47D
EKVX = test system: EKVX
CCRF-CEM = test system: CCRF-CEM
SF-295 = test system: SF-295
M14 = test system: M14
MCF7 = test system: MCF7
SK-MEL-5 = test system: SK-MEL-5

COc1cc(OC)c2c(=O)cc(-c3ccccc3F)[nH]c2c1
GI50 (SNB-75): 33.9 µM (inactive) | GI50 (MDA-MB-435): 8.38 µM (inactive) | GI50 (UO-31): 28.6 µM (inactive) | GI50 (A498): 48.2 µM (inactive) | GI50 (HOP-92): > 100 µM (inactive) | GI50 (OVCAR-4): 14.2 µM (inactive) | GI50 (SN12C): > 100 µM (inactive) | GI50 (LOX IMVI): 61.1 µM (inactive) | GI50 (NCI-H23): 32.9 µM (inactive) | GI50 (SK-MEL-2): > 100 µM (inactive) | GI50 (ACHN): > 100 µM (inactive) | GI50 (UACC-62): 52.8 µM (inactive) | GI50 (TK-10): 39.9 µM (inactive) | GI50 (T47D): 95.1 µM (inactive) | GI50 (EKVX): 86.5 µM (inactive) | GI50 (CCRF-CEM): 88.9 µM (inactive) | GI50 (SF-295): 34.3 µM (inactive) | GI50 (M14): 39.1 µM (inactive) | GI50 (MCF7): 54.5 µM (inactive) | GI50 (SK-MEL-5): 30.3 µM (inactive)

O=C1C(Cl)=C(N2CCN(CCOCCO)CC2)C(=O)c2ccccc21
GI50 (SNB-75): 14.2 µM (inactive) | GI50 (MDA-MB-435): 3.41 µM (inactive) | GI50 (UO-31): 7.73 µM (inactive) | GI50 (A498): 18.5 µM (inactive) | GI50 (HOP-92): 1.49 µM (inactive) | GI50 (OVCAR-4): 2.19 µM (inactive) | GI50 (SN12C): 15.2 µM (inactive) | GI50 (LOX IMVI): 6.4 µM (inactive) | GI50 (NCI-H23): 13.6 µM (inactive) | GI50 (SK-MEL-2): 8.89 µM (inactive) | GI50 (ACHN): 7.36 µM (inactive) | GI50 (UACC-62): 6.32 µM (inactive) | GI50 (TK-10): 20.2 µM (inactive) | GI50 (T47D): 1.85 µM (inactive) | GI50 (EKVX): 18.4 µM (inactive) | GI50 (CCRF-CEM): 2.33 µM (inactive) | GI50 (SF-295): 18 µM (inactive) | GI50 (M14): 9.29 µM (inactive) | GI50 (MCF7): 3.56 µM (inactive) | GI50 (SK-MEL-5): 14.7 µM (inactive)

CCC/C=C/C=C/C(=O)OC1C(C)C2(O)C3C=C(C)C(=O)C3CC(COC(C)=O)=CC2C2C(C)(C)C12OC(=O)C(C)C (stereo not given)
GI50 (SNB-75): 10.3 µM (inactive) | GI50 (MDA-MB-435): 0.303 µM (active) | GI50 (UO-31): 15.4 µM (inactive) | GI50 (A498): 1.66 µM (inactive) | GI50 (HOP-92): 8.81 µM (inactive) | GI50 (OVCAR-4): 22.9 µM (inactive) | GI50 (SN12C): 11 µM (inactive) | GI50 (LOX IMVI): 19.7 µM (inactive) | GI50 (NCI-H23): 12.8 µM (inactive) | GI50 (SK-MEL-2): 18.4 µM (inactive) | GI50 (ACHN): 9.46 µM (inactive) | GI50 (UACC-62): 11.2 µM (inactive) | GI50 (TK-10): 13.5 µM (inactive) | GI50 (T47D): 18.5 µM (inactive) | GI50 (EKVX): 19.4 µM (inactive) | GI50 (CCRF-CEM): 0.137 µM (active) | GI50 (SF-295): 0.462 µM (active) | GI50 (M14): 14.1 µM (inactive) | GI50 (MCF7): 17.2 µM (inactive) | GI50 (SK-MEL-5): 1.84 µM (inactive)

COc1ccc(C(=O)/C=C/c2ccc(Oc3cc(C(=O)/C=C/c4ccc(O)cc4)c(O)cc3OC)cc2)c(O)c1 [RHUSCHALCONE I]
GI50 (SNB-75): 5.27 µM (inactive) | GI50 (MDA-MB-435): 3.55 µM (inactive) | GI50 (UO-31): 3.59 µM (inactive) | GI50 (A498): 1.67 µM (inactive) | GI50 (HOP-92): 13.9 µM (inactive) | GI50 (OVCAR-4): 3.23 µM (inactive) | GI50 (SN12C): 3.74 µM (inactive) | GI50 (LOX IMVI): 2.27 µM (inactive) | GI50 (NCI-H23): 2.72 µM (inactive) | GI50 (SK-MEL-2): 8.57 µM (inactive) | GI50 (ACHN): 2.9 µM (inactive) | GI50 (UACC-62): 3.27 µM (inactive) | GI50 (TK-10): 4.06 µM (inactive) | GI50 (T47D): 4.99 µM (inactive) | GI50 (EKVX): 4.01 µM (inactive) | GI50 (CCRF-CEM): 2.27 µM (inactive) | GI50 (SF-295): 6.41 µM (inactive) | GI50 (M14): 4.74 µM (inactive) | GI50 (MCF7): 4.41 µM (inactive) | GI50 (SK-MEL-5): 4.02 µM (inactive)
